Consider 14 compounds from patent EP3730489A1, “HETEROARYL COMPOUNDS AS AGROCHEMICAL FUNGICIDES” (BASF SE, priority 2019, dated 2020).

What all share (type): cell-based
One experiment deals with Fusarium culmorum. Put plainly: Activity against Fusarium culmorum (Fusacu), microtiter plate test. The following applies: relative growth vs active compound-free control (100%), measured at 405 nm 7 days after the inoculation; for activity at 31 ppm: Fusarium culmorum, 168 h. On the procedure:
(§1) The active compounds were formulated separately as a stock solution having a concentration of 10000 ppm in dimethyl sulfoxide.
4. Activity against Fusarium culmorum (Fusacu)
The stock solutions were mixed according to the ratio, pipetted onto a micro titer plate (MTP) and diluted with water to the stated concentrations. A spore suspension of Fusarium culmorum in an aqueous biomalt or yeast-bactopeptone-glycerine solution was then added. The plates were placed in a water vapor-saturated chamber at a temperature of 18°C. Using an absorption photometer, the MTPs were measured at 405 nm 7 days after the inoculation.
(§2) The measured parameters were compared to the growth of the active compound-free control variant (100%) and the fungus-free and active compound-free blank value to determine the relative growth in % of the pathogens in the respective active compounds.

For the next experiment, the system named is Septoria tritici. The experiment in a line: Activity against leaf blotch on wheat caused by Septoria tritici (Septtr), microtiter plate test. The following applies: relative growth vs active compound-free control (100%), measured at 405 nm 7 days after the inoculation. As to the method: as §1
3. Activity against leaf blotch on wheat caused by Septoria tritici (Septtr)
The stock solutions were mixed according to the ratio, pipetted onto a micro titer plate (MTP) and diluted with water to the stated concentrations. A spore suspension of Septoria tritici in an aqueous biomalt or yeast-bactopeptone-glycerine solution was then added. The plates were placed in a water vapor-saturated chamber at a temperature of 18°C. Using an absorption photometer, the MTPs were measured at 405 nm 7 days after the inoculation.
as §2

Another experiment deals with Botrytis cinerea. The experiment in a line: Activity against the grey mold Botrytis cinerea in the microtiterplate test (Botrci). The following applies: relative growth vs active compound-free control (100%), measured at 405 nm 7 days after the inoculation. As to the method: as §1
1. Activity against the grey mold Botrytis cinerea in the microtiterplate test (Botrci)
The stock solutions were mixed according to the ratio, pipetted onto a micro titer plate (MTP) and diluted with water to the stated concentrations. A spore suspension of Botrci cinerea in an aqueous biomalt or yeast-bactopeptone-sodiumacetate solution was then added. The plates were placed in a water vapor-saturated chamber at a temperature of 18°C. Using an absorption photometer, the MTPs were measured at 405 nm 7 days after the inoculation.
as §2

“3-[3-(trifluoromethyl)-2-thienyl]-1H-indole-5-carbonitrile [Example 1]”: in the experiment with Fusarium culmorum, the “growth (%) at 31ppm Fusacu” value is on record as 0%. The “growth (%) at 31ppm Septtr” value in the experiment on Septoria tritici was 14%.

Take `N#Cc1ccc2[nH]cc(-c3ocnc3C(F)(F)F)c2c1` [Example 2, 3-[4-(trifluoromethyl)oxazol-5-yl]-1H-indole-5-carbonitrile]: the activity at 31 ppm in the experiment on Fusarium culmorum was 7%. Moreover, the “growth (%) at 31ppm Botrci” value in the experiment with Botrytis cinerea came to 6%.

Compound `C#Cc1cnc2[nH]cc(-c3ocnc3C(F)(F)F)c2c1` [Example 6, 5-(5-ethynyl-1H-pyrrolo[2,3-b]pyridin-3-yl)-4-(trifluoromethyl)oxazole] returned an activity at 31 ppm in the experiment on Fusarium culmorum of 1%. In addition, the “growth (%) at 31ppm Botrci” value with Botrytis cinerea is listed as 5%. The “growth (%) at 31ppm Septtr” value with Septoria tritici is on record as 12%.

For `Fc1cnc2[nH]cc(-c3ocnc3C(F)(F)F)c2c1` [Example 8, 5-(5-fluoro-1H-pyrrolo[2,3-b]pyridin-3-yl)-4-(trifluoromethyl)oxazole], in the experiment on Fusarium culmorum, the activity at 31 ppm turned out to be 6%.

Regarding `Fc1cnc2[nH]cc(-c3ocnc3I)c2c1` [Example 9, 5-(5-fluoro-1H-pyrrolo[2,3-b]pyridin-3-yl)-4-iodooxazole], the activity at 31 ppm in the experiment with Fusarium culmorum was 11%.

`Clc1ccsc1-c1c[nH]c2ccc(Br)cc12` [Example P1]: the activity at 31 ppm with Fusarium culmorum was determined as 1%. Also, the “growth (%) at 31ppm Botrci” value in the experiment on Botrytis cinerea was 0%. Also, the “growth (%) at 31ppm Septtr” value in the experiment with Septoria tritici is 8%.

For the compound `C#Cc1ccc2[nH]cc(-c3sccc3Cl)c2c1` [Example P2], the activity at 31 ppm in the experiment on Fusarium culmorum was determined as 1%. The “growth (%) at 31ppm Botrci” value with Botrytis cinerea was 1%. In addition, in the experiment with Septoria tritici, the “growth (%) at 31ppm Septtr” value stood at 12%.

Consider `Brc1ccc2[nH]cc(-c3sccc3Br)c2c1` [Example P3], for which the activity at 31 ppm with Fusarium culmorum stood at 0%. The “growth (%) at 31ppm Botrci” value in the experiment on Botrytis cinerea amounted to 0%. In the experiment on Septoria tritici, the “growth (%) at 31ppm Septtr” value worked out at 0%.

The compound `N#Cc1ccc2[nH]cc(-c3sccc3Br)c2c1` [Example P4] gave an activity at 31 ppm in the experiment on Fusarium culmorum of 17%.

In the experiment with Fusarium culmorum, `FC(F)Oc1ccc2[nH]cc(-c3sccc3C(F)(F)F)c2n1` [Example P5] returned an activity at 31 ppm of 0%. Further, the “growth (%) at 31ppm Botrci” value in the experiment with Botrytis cinerea is listed as 1%. In addition, the “growth (%) at 31ppm Septtr” value in the experiment on Septoria tritici turned out to be 4%.

For the compound `FC(F)(F)c1ncoc1-c1c[nH]c2ccc(Br)cc12` [Example P6], in the experiment on Botrytis cinerea, the “growth (%) at 31ppm Botrci” value is on record as 1%. In the experiment on Septoria tritici, the “growth (%) at 31ppm Septtr” value came to 2%.

As to `C#Cc1cnc2[nH]cc(-c3ocnc3Br)c2c1` [Example P8], the activity at 31 ppm in the experiment with Fusarium culmorum was determined as 0%. Moreover, in the experiment with Septoria tritici, the “growth (%) at 31ppm Septtr” value came to 15%.

Turning to `C#Cc1cnc2[nH]cc(-c3ocnc3C(F)F)c2c1` [Example P10], the activity at 31 ppm with Fusarium culmorum is 6%.

Compound `Fc1ncc2[nH]cc(-c3sccc3C(F)(F)F)c2n1` [Example P17] yielded an activity at 31 ppm with Fusarium culmorum of 14%.
